Results taken from patent US20090285773A1, “Hepatitis C Virus Inhibitors” (Bristol-Myers Squibb Company, priority 2008, published 2009).

Target: T1, HCV NS3/4A protease complex, J4L6S strain (1b genotype) (Hepatitis C virus genotype 1b, UniProt O92972, C1454S/C1711G)
T1 construct: DNA encoding the recombinant HCV NS3/4A protease complex (amino acids 1027 to 1711) for these strains; His tag (inferred from pET21b vector and Ni-NTA purification); made in house; host or cells: Escherichia coli BL21 (DE3)
Assay: FRET peptide assay, HCV NS3/4A protease complex, J4L6S strain
Assay type: biochemical
Source text: HCV NS3 protease complexes, derived from the BMS strain, H77 strain or J4L6S strain, were generated, as described below. These purified recombinant proteins were generated for use in a homogeneous assay (see below) to provide an indication of how effective compounds of the present disclosure would be in inhibiting HCV NS3 proteolytic activity.
Serum from an HCV-infected patient was obtained from Dr. T. Wright, San Francisco Hospital. An engineered full-length cDNA (compliment deoxyribonucleic acid) template of the HCV genome (BMS strain) was constructed from DNA fragments obtained by reverse transcription-PCR (RT-PCR) of serum RNA (ribonucleic acid) and using primers selected on the basis of homology between other genotype 1a strains. From the determination of the entire genome sequence, a genotype 1a was assigned to the HCV isolate according to the classification of Simmonds et al. (See P Simmonds, K A Rose, S Graham, S W Chan, F McOmish, B C Dow, E A Follett, P L Yap and H Marsden, J. Clin. Microbiol., 31(6), 1493-1503 (1993)). […]

T1 sequence (O92972 1027-1711 C1454S/C1711G, one chain of several): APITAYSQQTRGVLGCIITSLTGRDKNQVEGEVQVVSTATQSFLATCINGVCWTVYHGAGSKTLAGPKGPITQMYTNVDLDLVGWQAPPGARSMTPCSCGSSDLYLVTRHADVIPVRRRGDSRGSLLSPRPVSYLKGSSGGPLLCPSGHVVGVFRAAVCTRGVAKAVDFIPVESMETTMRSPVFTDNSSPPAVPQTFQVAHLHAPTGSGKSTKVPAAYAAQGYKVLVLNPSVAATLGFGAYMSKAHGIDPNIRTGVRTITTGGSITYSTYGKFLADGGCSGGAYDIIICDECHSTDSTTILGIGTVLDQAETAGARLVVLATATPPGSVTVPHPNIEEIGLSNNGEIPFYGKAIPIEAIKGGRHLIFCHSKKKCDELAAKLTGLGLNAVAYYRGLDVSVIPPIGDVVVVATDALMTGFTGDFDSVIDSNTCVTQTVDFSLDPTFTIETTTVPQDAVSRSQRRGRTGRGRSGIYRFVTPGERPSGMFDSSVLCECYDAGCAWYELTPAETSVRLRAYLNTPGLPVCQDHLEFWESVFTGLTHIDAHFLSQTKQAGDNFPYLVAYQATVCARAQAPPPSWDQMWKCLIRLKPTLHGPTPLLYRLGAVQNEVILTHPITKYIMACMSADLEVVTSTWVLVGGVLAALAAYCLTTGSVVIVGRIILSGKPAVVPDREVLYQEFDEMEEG

Q: With `COc1ccc2c(O[C@@H]3C[C@H]4C(=O)N[C@]5(C(=O)NS(=O)(=O)C6CC6)C[C@H]5/C=C\CCCCC[C@H](Nc5ccc(OC)nc5)C(=O)N4C3)nccc2c1` (single isomer, unassigned) [Compound 1] as the molecule, how does the IC50 read?
A: 1.2 nM
